This note sets out measurements from patent publication US10589001B2, “Pharmaceutical formulation for use in spinal fusion” (Kuros Biosurgery AG, priority 2011, dated 2020).

This data set concerns Crossbred Suffolk Sheep. Kind of data set: Sheep transforaminal lumbar interbody fusion model. The format is in vivo. Here is the method: As in example 1, PTH (i.e. TGplPTH1-34) was tested alone or with granular material. The same materials were used as in example 1, and the preparation of the product followed the same protocol as for example 1, but in this study the concentrations of TGplPTH1-34 ranged from 0.2 mg/mL to 0.7 mg/mL of the fibrin matrix. The treatment was placed only inside the interbody cage. No additional test material was placed around the cage, as in example 1.
A total of 28 Crossbred Suffolk Sheep (Castrated Weathers) with an average weight of 57 kg and age ranging from 3 to 6 years of age were chosen as experimental animals. The animals were divided into 7 groups. One group (the positive control group) was treated with autograft and the remaining groups were treated with a fibrin matrix with or without granular material, containing different concentrations of TGplPTH1-34. Groups were followed for 16 weeks, after which the animals were sacrificed. Animal care and use was conducted in accordance with federal regulations as outlined in the Animal Welfare Act. Surgery, perioperative care, housing, sanitation practices, husbandry, and veterinary care followed the recommendations of the NIH Guide for the Care and Use of Laboratory Animals (HHS, NIH Pub. No. 85-23, 1985). Animal care personnel were qualified, through training and experience, to perform required duties. […]

As for `CC[C@H](C)[C@H](NC(=O)[C@H](CCC(=O)O)NC(=O)[C@H](CO)NC(=O)[C@@H](NC(=O)[C@H](CO)NC(=O)[C@H](CCCNC(=N)N)NC(=O)[C@H](CC(N)=O)NC(=O)[C@H](CCCCN)NC(=O)[C@H](Cc1ccc(O)cc1)NC(=O)[C@H](CC(C)C)NC(=O)[C@@H]1CCCN1C(=O)[C@H](CO)NC(=O)[C@@H](NC(=O)[C@H](CCC(N)=O)NC(=O)[C@H](CCC(=O)O)NC(=O)[C@H](CCC(N)=O)NC(=O)[C@@H](N)CC(N)=O)C(C)C)C(C)C)C(=O)N[C@@H](CCC(N)=O)C(=O)N[C@@H](CC(C)C)C(=O)N[C@@H](CCSC)C(=O)N[C@@H](Cc1c[nH]cn1)C(=O)N[C@@H](CC(N)=O)C(=O)N[C@@H](CC(C)C)C(=O)NCC(=O)N[C@@H](CCCCN)C(=O)N[C@@H](Cc1c[nH]cn1)C(=O)N[C@@H](CC(C)C)C(=O)N[C@@H](CC(N)=O)C(=O)N[C@@H](CO)C(=O)N[C@@H](CCSC)C(=O)N[C@@H](CCC(=O)O)C(=O)N[C@@H](CCCNC(=N)N)C(=O)N[C@H](C(=O)N[C@@H](CCC(=O)O)C(=O)N[C@@H](Cc1c[nH]c2ccccc12)C(=O)N[C@@H](CC(C)C)C(=O)N[C@@H](CCCNC(=N)N)C(=O)N[C@@H](CCCCN)C(=O)N[C@@H](CCCCN)C(=O)N[C@@H](CC(C)C)C(=O)N[C@@H](CCC(N)=O)C(=O)N[C@@H](CC(=O)O)C(=O)N[C@H](C(=O)N[C@@H](Cc1c[nH]cn1)C(=O)N[C@@H](CC(N)=O)C(=O)N[C@@H](Cc1ccccc1)C(=O)O)C(C)C)C(C)C` [TGplPTH1-34], the “toxicity during the treatment period” value (any of the doses (0.2-0.7 mg/mL) or formulations, 16 weeks) is on record as “No toxicity was observed”. For the same compound, the histopathologic review entry (in vivo) is “no signs of osseous pathology”.
